Patent publication US9364465B2, “Thiazolidinediones of omega-3 polyunsaturated acids as new insulin sensitizers for treating type2 diabetes” (Jiva Pharma, Inc., priority 2013, dated 2016)
pEC50: −log10 of the molar value. Read-outs that look alike come from different tables or passages of the source.

Target: T1, PPARγ (Homo sapiens, UniProt P37231)
T1 construct: expressed in transfected cells
T1 sequence (P37231 238-503 limits assumed): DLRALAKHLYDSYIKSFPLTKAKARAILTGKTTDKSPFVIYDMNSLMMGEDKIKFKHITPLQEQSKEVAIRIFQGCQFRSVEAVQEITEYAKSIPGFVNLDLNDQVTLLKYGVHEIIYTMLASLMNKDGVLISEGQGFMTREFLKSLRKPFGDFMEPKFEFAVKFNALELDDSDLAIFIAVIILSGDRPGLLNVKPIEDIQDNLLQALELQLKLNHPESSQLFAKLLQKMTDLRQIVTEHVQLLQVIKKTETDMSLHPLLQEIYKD
Assay: cell-based chimeric receptor transcription assay (PPAR ligand binding domain fused to GAL4 DNA binding domain, GAL4-regulated luciferase reporter)
Conditions: for RE: RE Conc. 16 μM
Description: To determine if these compounds can activate PPARγ or the members of the PPAR family of nuclear receptors (PPARα and PPARδ), the ability of these compounds to activate PPAR receptors in a cell-based chimeric receptor transcription assay were tested. This is a standard nuclear receptor ligand activity assay that utilizes the ligand binding domain of the PPAR receptor fused to a heterologous GAL4 DNA binding domain. The transcriptional read-out is from a GAL4-regulated luciferase reporter. In this assay, compounds that activate the receptor cause an increase in luciferase activity measured in a luminometer. The data are shown in Table 1 below (average luciferase values from transcription assay).

[1] = 1.02 μM conc., * above background
[2] = 2.6 μM conc., * above background
[3] = 6.4 μM conc., * above background
[4] = 16 μM conc., * above background
[5] = 40 μM conc., * above background
[6] = calculated EC50, PPARγ agonist assay, Table 2, read-out: EC50
[7] = read-out: activation of PPARγ, potency (EC50)

Compound | average luciferase values from transcription assay (0.16 μM conc.) | average luciferase values from transcription assay (0.41 μM conc.) | average luciferase values from transcription assay [1] | average luciferase values from transcription assay [2] | average luciferase values from transcription assay [3] | average luciferase values from transcription assay [4] | average luciferase values from transcription assay [5] | RE | pEC50 [6] | pEC50 [7]
CC/C=C\C/C=C\C/C=C\C/C=C\C/C=C\C/C=C\CCCC1SC(=O)NC1=O (centres unmarked) [DHA-TZ, 5-((4Z,7Z,10Z,13Z,16Z,19Z)-docosa-4,7,10,13,16,19-hexaenyl)thiazolidine-2,4-dione] | 106 | 145 | 167* | 207* | 623* | 1454* | 1868* | 1354 | 5.01 | 5.00
CC/C=C\C/C=C\C/C=C\C/C=C\C/C=C\CCCC(=O)OCC [EPA Et Ester, eicosapentaenoic acid ethyl ester, reference compound] | – | – | – | – | – | – | – | – | < 4.00 | –
CC/C=C\C/C=C\C/C=C\C/C=C\C/C=C\CCCCC1SC(=O)NC1=O (centres unmarked) [EPA-TZ, 5-((5Z,8Z,11Z,14Z,17Z)-eicosa-5,8,11,14,17-pentaenyl)thiazolidine-2,4-dione] | 128 | 123 | 164* | 297* | 705* | 1416* | 48^ | 1316 | – | 4.92
